Results: ChEMBL document CHEMBL1142530, “Chalcogenopyrylium dyes as inhibitors/modulators of P-glycoprotein in multidrug-resistant cells” (Bioorg Med Chem, 2008)
Calls of active or inactive are those of the source. No cut-off for these calls is given here.

Assays:
[1] = tested on: MDCK-II; test: Apparent permeability from basolateral to apical side of MDCK2 cells over expressing MDR1 at 5 uM after 1 hr; format: functional, cell-based; conditions: Canis lupus familiaris
[2] = tested on: MDCK-II; test: Apparent permeability from apical to basolateral side of MDCK2 cells over expressing MDR1 at 5 uM after 1 hr in presence of 25 uM LSN335984; format: functional, cell-based; conditions: Canis lupus familiaris
[3] = tested on: MDCK-II; test: Apparent permeability from basolateral to apical side of MDCK2 cells over expressing MDR1 at 5 uM after 1 hr in presence of 25 uM LSN335984; format: functional, cell-based; conditions: Canis lupus familiaris
[4] = Octanol-water partition coefficient, log P after 5 hrs by shake flask method; format: physicochemical
[5] = tested on: MDCK-II; test: Enhancement of calcein-AM uptake in MDCK2 cells over expressing MDR1 after 20 mins; format: functional, cell-based; conditions: Canis lupus familiaris
[6] = molecular target: T1, MDR1 (ABCB1, P-glycoprotein) (Homo sapiens, UniProt P08183); test: Inhibition of MDR1 overexpressed in MDCK cells at 5 uM relative to LSN335984; format: cell-based; conditions: dog
[7] = molecular target: T1, MDR1 (ABCB1, P-glycoprotein); test: (§1) Inhibition of MDR1 overexpressed in MDCK cells at 25 uM relative to LSN335984; format: cell-based; conditions: dog, MDCK-MDR1
[8] = tested on: MDCK-II; test: Passive apparent permeability across MDCK2 cells over expressing MDR1 in presence of 25 uM LSN335984 after 1 hr; format: functional, cell-based; conditions: Canis lupus familiaris
[9] = tested on: MDCK-II; test: Apparent permeability from apical to basolateral side of MDCK2 cells over expressing MDR1 after 1 hr; format: functional, cell-based; conditions: Canis lupus familiaris
[10] = tested on: MDCK-II; test: Apparent permeability from basolateral to apical side of MDCK2 cells over expressing MDR1 after 1 hr; format: functional, cell-based; conditions: Canis lupus familiaris
[11] = tested on: MDCK-II; test: Efflux ratio of permeability from basolateral to apical side to apical to basolateral side in MDCK2 cells over expressing MDR1 to permeability from basolateral to apical side to apical to basolateral side in MDCK2 cells over expressing MDR1 in presence of 25 uM LSN335984; format: functional, Canis lupus familiaris
[12] = Inhibition of verapamil-induced ATPase activity in lipid activated mouse P-glycoprotein mdr3 cys-less mutant assessed as ATP hydrolysis per ug of protein
[13] = species on record: Mus musculus; test: Inhibition of verapamil-induced residual ATPase activity in lipid activated mouse P-glycoprotein mdr3 cys-less mutant assessed as ATP hydrolysis per ug of protein
[14] = tested on: DNA; test: Binding affinity to calf thymus DNA relative to control; format: nucleic-acid assay; conditions: Bos taurus
[15] = Binding affinity to P-glycoprotein in presence of Escherichia coli sham lipids
[16] = species on record: Mus musculus; test: Inhibition of verapamil-induced specific ATPase activity in lipid activated mouse P-glycoprotein mdr3 cys-less mutant assessed as ATP hydrolysis per ug of protein at 100 uM
[17] = species on record: Mus musculus; test: Inhibition of verapamil-induced ATPase activity in lipid activated mouse P-glycoprotein mdr3 cys-less mutant assessed as ATP hydrolysis at 100 uM
[18] = Inhibition of [3H]vinblastine transport in human PEAK stable cells over expressing MDR1 assessed as [3H]vinblastine accumulation after 2.5 mins; format: functional, cell-based
[19] = tested on: MDCK-II; test: Inhibition of [3H]vinblastine transport in MDCK2 cells over expressing MDR1 assessed as [3H]vinblastine accumulation after 2.5 mins; format: functional, cell-based; conditions: Canis lupus familiaris
[20] = (§2) Activity of verapamil-dependent ATPase in lipid activated mouse P-glycoprotein mdr3 cys-less mutant
[21] = species on record: Mus musculus; test: as §2
[22] = molecular target: ATP-dependent translocase ABCB1 (Homo sapiens, UniProt P08183); test: as §1; format: cell-based; conditions: dog, mdck, 25 µM
[23] = species on record: Mus musculus; test: Activity of verapamil-dependent ATPase in lipid activated cys-less mouse mdr3 P-glycoprotein assessed per ug of protein

T1 sequence (P08183 whole entry): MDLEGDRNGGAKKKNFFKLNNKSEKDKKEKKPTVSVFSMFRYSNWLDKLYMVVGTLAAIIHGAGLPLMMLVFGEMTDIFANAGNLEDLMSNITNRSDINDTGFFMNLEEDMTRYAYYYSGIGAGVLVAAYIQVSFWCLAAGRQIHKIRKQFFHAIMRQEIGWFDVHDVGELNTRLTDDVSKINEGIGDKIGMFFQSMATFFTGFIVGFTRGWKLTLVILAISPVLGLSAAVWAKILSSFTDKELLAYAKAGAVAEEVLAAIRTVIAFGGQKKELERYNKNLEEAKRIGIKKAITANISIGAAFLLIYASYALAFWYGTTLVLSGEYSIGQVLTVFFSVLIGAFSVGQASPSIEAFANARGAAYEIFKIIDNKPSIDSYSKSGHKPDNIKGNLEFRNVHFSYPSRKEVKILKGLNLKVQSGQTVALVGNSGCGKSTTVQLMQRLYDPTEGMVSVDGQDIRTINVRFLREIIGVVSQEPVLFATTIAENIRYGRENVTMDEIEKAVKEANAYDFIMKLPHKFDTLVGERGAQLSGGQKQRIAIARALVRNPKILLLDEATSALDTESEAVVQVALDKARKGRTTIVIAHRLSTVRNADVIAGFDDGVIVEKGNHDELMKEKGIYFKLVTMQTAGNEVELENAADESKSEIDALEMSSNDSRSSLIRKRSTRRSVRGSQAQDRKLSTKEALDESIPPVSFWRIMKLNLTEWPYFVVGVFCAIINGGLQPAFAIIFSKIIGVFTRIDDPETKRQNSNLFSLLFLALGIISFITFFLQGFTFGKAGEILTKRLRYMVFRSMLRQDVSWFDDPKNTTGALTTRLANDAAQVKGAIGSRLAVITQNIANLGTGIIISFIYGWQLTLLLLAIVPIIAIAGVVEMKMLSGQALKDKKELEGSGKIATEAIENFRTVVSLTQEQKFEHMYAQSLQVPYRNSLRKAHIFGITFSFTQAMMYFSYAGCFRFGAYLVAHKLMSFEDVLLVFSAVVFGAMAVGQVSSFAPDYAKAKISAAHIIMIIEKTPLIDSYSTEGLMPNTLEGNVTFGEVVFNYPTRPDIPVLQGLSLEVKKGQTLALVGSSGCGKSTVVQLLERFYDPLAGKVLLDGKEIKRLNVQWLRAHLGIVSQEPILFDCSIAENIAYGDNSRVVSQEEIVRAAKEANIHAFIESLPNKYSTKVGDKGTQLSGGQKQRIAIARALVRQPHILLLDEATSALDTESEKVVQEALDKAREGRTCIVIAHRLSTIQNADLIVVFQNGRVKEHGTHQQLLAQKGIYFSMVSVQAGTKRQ
Chain of ATP-dependent translocase ABCB1 (P08183 whole entry): as above

SMILES	permeability [1]	permeability [2]	permeability [3]	logP at 5 h [4]	EC50 [5]	inhibition at 5 µM [6]	inhibition at 25 µM [7]	Papp [8]	permeability [9]	permeability [10]	Ratio [11]	IC50 [12]	Activity [13]	Activity [16]	other results
CN(C)c1ccc(-c2cc(-c3ccc(N(C)C)cc3)[se+]c(C(C)(C)C)c2)cc1.[I-]	26%	37%	23%	1.6	6.7 µM	23%	67%	2.8 nm/s	2.3 nm/s	290 nm/s	161	–	–	–	–
c1ccc(-c2cc(-c3ccc(N4CCOCC4)cc3)cc(-c3ccc(N4CCOCC4)cc3)[s+]2)cc1	–	–	–	2.1	–	–	–	–	–	–	–	30 µM	1 nmol/min	–	–
Cc1cc(-c2ccc(N(C)C)cc2)cc(-c2ccc(N(C)C)cc2)[s+]1.[I-]	25%	24%	17%	0.6	16 µM	13%	74%	4.2 nm/s	5.8 nm/s	51 nm/s	14	15 µM	0.5 nmol/min	0.48 nmol/min	Activity [14]: > 60; Kapp [15]: 4.5 ×10⁻⁶ M
CN(C)c1ccc(-c2cc(-c3ccc(N)cc3)[se+]c(-c3ccc(N)cc3)c2)cc1.F[P-](F)(F)(F)(F)F	12%	14%	10%	2.2	25 µM	6%	29%	2.8 nm/s	3.4 nm/s	45 nm/s	17	> 100 µM	2.5 nmol/min	–	Activity [17]: inactive
Cc1cc(C)c(-c2cc(-c3ccc(N(C)C)cc3)[te+]c(-c3ccc(N(C)C)cc3)c2)c(C)c1.F[P-](F)(F)(F)(F)F	3%	7%	5%	2.4	5.4 µM	32%	–	4.8 nm/s	8.5 nm/s	4.2 nm/s	1.4	1.2 µM	0.4 nmol/min	0.44 nmol/min	IC50 [18]: 4.3 µM; IC50 [19]: 9.6 µM; Ki [20]: 40 nM; Km [21]: 16 µM; inhibition (INH) [22]: 230%; Vmax [23]: 2.67 nmol/min
CN(C)c1ccc(-c2cc(-c3ccccc3)[se+]c(-c3ccc(N)cc3)c2)cc1.F[P-](F)(F)(F)(F)F	18%	18%	13%	0.8	20 µM	5%	22%	2.8 nm/s	3.5 nm/s	120 nm/s	57	–	–	–	–
Cc1cc(-c2ccc(N(C)C)cc2)[s+]c(-c2ccc(N(C)C)cc2)c1	–	–	–	1.2	–	–	–	–	–	–	–	5.7 µM	0.9 nmol/min	–	–
c1ccc(-c2cc(-c3ccc(N4CCOCC4)cc3)[s+]c(-c3ccc(N4CCOCC4)cc3)c2)cc1	–	–	–	1.3	–	–	–	–	–	–	–	3.1 µM	1 nmol/min	–	–
CCc1cc(-c2ccc(N(C)C)cc2)cc(-c2ccc(N(C)C)cc2)[s+]1	–	–	–	0.1	–	–	–	–	–	–	–	1 µM	1.3 nmol/min	0.74 nmol/min	–
CN(C)c1ccc(-c2cc(-c3cccs3)cc(-c3ccc(N(C)C)cc3)[te+]2)cc1	–	–	–	2.2	–	–	–	–	–	–	–	7.9 µM	0.9 nmol/min	–	–
CN(C)c1ccc(-c2cc(-c3ccc(N(C)C)cc3)[s+]c(C(C)(C)C)c2)cc1.[I-]	37%	44%	25%	1.5	7.1 µM	25%	60%	3.4 nm/s	5.3 nm/s	340 nm/s	134	0.88 µM	1.4 nmol/min	0.7 nmol/min	Activity [14]: > 60; Kapp [15]: 4.7 ×10⁻⁷ M
CN(C)c1ccc(-c2cc(-c3ccc(N)cc3)[s+]c(-c3ccc(N(C)C)cc3)c2)cc1.F[P-](F)(F)(F)(F)F	19%	16%	17%	2.2	35 µM	2%	16%	32 nm/s	53 nm/s	42 nm/s	1.6	0.7 µM	1.6 nmol/min	0.93 nmol/min	–
Nc1ccc(-c2cc(-c3ccc(N4CCOCC4)cc3)cc(-c3ccc(N4CCOCC4)cc3)[s+]2)cc1	–	–	–	2.1	–	–	–	–	–	–	–	11 µM	0.7 nmol/min	–	–
CCCc1cc(-c2ccc(N(C)C)cc2)cc(-c2ccc(N(C)C)cc2)[s+]1.[I-]	11%	8%	11%	1.2	9.8 µM	15%	87%	22 nm/s	1.5 nm/s	370 nm/s	390	> 100 µM	2.5 nmol/min	1.37 nmol/min	Activity [14]: > 60; Kapp [15]: 2.2 ×10⁻⁶ M; Activity [17]: inactive
CN(C)c1ccc(-c2cc(-c3ccc(N4CCOCC4)cc3)[se+]c(-c3ccc(N4CCOCC4)cc3)c2)cc1	–	–	–	2.3	–	–	–	–	–	–	–	55 µM	0.4 nmol/min	–	–
CN(C)c1ccc(-c2cc(-c3ccccc3)[s+]c(-c3ccc(N)cc3)c2)cc1.F[P-](F)(F)(F)(F)F	24%	19%	20%	0	14 µM	7%	14%	3.1 nm/s	3.7 nm/s	170 nm/s	70	5.3 µM	0.9 nmol/min	–	–
Cc1cc(C)c(-c2cc(-c3ccc(N(C)C)cc3)[s+]c(-c3ccc(N(C)C)cc3)c2)c(C)c1	–	–	–	2.1	–	–	–	–	–	–	–	71 µM	0 nmol/min	0.3 nmol/min	–
